From patent US20250058027A1, “Nanoyarns as Drug-Releasing Facilitator” (Amrita Vishwa Vidyapeetham, priority 2023, published 2025)
Structures can show the parent of a compound that is named as a salt. Where two headings read alike, the source gives them in different places.

Set-up: species or system Yorkshire-desi crossbred pigs
Conditions: pig, in vivo
Text: To assess the feasibility and safety of the developed device, in vivo implantation of nanostent was done in the porcine bile duct under fluoroscopic guidance via ERCP procedure. In this embodiment, in a total of 14 animals (Yorkshire-desi crossbred pigs), nanostents and control SEMS (SEMS without nanoyarns) were implanted and analyzed for two-time points (3 and 5 months). The fluoroscopic images of the control and nanostent implanted bile duct reveal the proper deployment of the stents in the bile duct. This points to the feasibility of implantation of the nanoyarn-integrated SEMS in vivo.
Endoscopic follow-up was performed in the animals at regular intervals. Blood and bile were collected for analysis of the drug content at intermittent time periods. These were then tested for the presence of GEM and its metabolite by HPLC. GEM and its metabolite DFDU could not be detected in blood up to the limit of its detection i.e., 300 ng. […] The drug content in bile was also undetectable, owing to the drug release happening in a continuously flowing bile fluid. However, the presence of remnant drug could be measured in the nanoyarns taken from explanted stents at 3 and 5 months, to be ˜1000 μg and 50 μg respectively. This confirms that the nanoyarn integrated with the stent can provide a localized drug release over prolonged time periods.

SMILES	drug/metabolite in blood (Yorkshire-desi crossbred)	drug content in bile	drug/metabolite in blood
Nc1ccn([C@@H]2O[C@H](CO)[C@@H](O)C2(F)F)c(=O)n1 [GEM, Gemcitabine hydrochloride]	< 300 ng	undetectable	
O=c1ccn(C2OC(CO)C(O)C2(F)F)c(=O)[nH]1 (stereo not drawn) [DFDU]			< 300 ng
